Assay results from ChEMBL document CHEMBL2177056, “Bis(arylvinyl)pyrazines, -pyrimidines, and -pyridazines as imaging agents for tau fibrils and β-amyloid plaques in Alzheimer's disease models” (J Med Chem, 2012).
The source made the active and inactive calls. The calls are words filed in the database; no cut-off is given here.

Assays:
[1] = target: T1, Microtubule-associated protein tau (Homo sapiens, UniProt P10636); assay: Displacement of thiazene red from tau aggregate
[2] = Displacement of thiazene red from amyloid beta (1 to 40) aggregate
[3] = target: T1, Microtubule-associated protein tau; assay: Binding affinity to extracellular tau plaques in Alzheimer patient brain by fluorescence microscopic analysis
[4] = target: T1, Microtubule-associated protein tau; assay: Binding affinity to intracellular fibrillar tau in Alzheimer patient brain by fluorescence microscopic analysis; assay type: cell-based
HepG2 = assay: Cytotoxicity against human HepG2 cells; assay type: cell-based
Mus musculus = assay: Binding affinity to amyloid beta plaque in transgenic mouse brain overexpressing APP Swedish mutant/PS1deltaE9 at 2 mg/kg, ip after 4 hrs by fluorescence microscopic analysis; assay type: functional, organism-based; set-up: dose 2 mg/kg
[5] = target: Amyloid-beta precursor protein (Homo sapiens) (UniProt P05067); assay: Binding affinity to intravascular amyloid beta angiopathies in Alzheimer patient brain by fluorescence microscopic analysis
Amyloid-beta precursor protein (Homo sapiens), sequence (P05067 whole entry): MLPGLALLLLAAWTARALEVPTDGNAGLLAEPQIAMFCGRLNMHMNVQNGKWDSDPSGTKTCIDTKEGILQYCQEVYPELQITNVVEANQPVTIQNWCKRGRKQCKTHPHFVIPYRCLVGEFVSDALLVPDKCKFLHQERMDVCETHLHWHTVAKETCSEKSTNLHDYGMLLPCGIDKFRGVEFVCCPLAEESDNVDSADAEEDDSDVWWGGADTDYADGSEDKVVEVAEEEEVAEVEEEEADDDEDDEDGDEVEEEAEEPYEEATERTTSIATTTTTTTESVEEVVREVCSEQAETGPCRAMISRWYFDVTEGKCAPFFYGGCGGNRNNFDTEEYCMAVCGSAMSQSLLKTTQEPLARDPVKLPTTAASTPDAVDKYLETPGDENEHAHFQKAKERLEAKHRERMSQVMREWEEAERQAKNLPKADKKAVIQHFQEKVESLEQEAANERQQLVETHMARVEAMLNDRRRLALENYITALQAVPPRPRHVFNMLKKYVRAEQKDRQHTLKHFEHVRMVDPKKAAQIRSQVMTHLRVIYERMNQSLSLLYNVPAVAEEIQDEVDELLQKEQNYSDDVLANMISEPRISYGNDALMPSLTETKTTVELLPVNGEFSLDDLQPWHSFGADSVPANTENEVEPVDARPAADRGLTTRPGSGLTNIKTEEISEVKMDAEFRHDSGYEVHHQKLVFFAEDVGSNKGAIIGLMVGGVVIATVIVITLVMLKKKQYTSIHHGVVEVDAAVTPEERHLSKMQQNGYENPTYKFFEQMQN

[6] = target: Amyloid-beta precursor protein (Homo sapiens) (UniProt P05067); assay: Binding affinity to extracellular amyloid beta plaques in Alzheimer patient brain by fluorescence microscopic analysis
[7] = Displacement of methoxy-XO4 from amyloid beta (1 to 40) aggregate
[8] = Lipophilicity, log P of the compound; assay type: physicochemical; settings: octanol/water
[9] = Selectivity ratio of IC50 for amyloid beta (1 to 40) aggregate to IC50 for tau aggregate
[10] = target: T1, Microtubule-associated protein tau; assay: Binding affinity to tau aggregate in Alzheimer patient bowmans gland of olfactory epithelium
[11] = Selectivity ratio of IC50 for tau aggregate to IC50 for amyloid beta (1 to 40) aggregate

T1 sequence (P10636 whole entry): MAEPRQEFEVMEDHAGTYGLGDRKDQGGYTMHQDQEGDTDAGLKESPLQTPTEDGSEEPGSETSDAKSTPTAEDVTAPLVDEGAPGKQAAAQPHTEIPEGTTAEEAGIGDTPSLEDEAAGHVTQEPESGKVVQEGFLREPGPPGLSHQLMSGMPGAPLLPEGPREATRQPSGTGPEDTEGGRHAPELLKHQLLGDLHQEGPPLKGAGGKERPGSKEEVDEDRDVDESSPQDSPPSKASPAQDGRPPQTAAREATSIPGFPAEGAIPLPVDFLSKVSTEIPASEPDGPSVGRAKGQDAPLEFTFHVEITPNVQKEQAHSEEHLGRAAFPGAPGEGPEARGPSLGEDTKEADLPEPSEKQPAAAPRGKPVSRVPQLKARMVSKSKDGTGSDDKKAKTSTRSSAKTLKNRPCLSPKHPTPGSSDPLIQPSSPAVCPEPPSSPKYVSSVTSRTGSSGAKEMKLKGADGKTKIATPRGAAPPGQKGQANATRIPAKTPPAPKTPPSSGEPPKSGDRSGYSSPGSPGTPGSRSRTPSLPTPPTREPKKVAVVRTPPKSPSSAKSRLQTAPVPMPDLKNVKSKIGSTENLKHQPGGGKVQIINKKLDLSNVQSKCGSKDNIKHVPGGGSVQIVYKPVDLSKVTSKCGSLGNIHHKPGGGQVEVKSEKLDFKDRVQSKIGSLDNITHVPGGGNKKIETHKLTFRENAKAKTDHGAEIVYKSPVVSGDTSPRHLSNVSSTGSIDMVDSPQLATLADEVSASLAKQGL

For `C(=C\c1cnc(/C=C/c2ccc(N3CCOCC3)cc2)cn1)/c1ccc(N2CCOCC2)cc1`, the IC50 ([1]; read-out: IC50) was 0.006 µM, the IC50 ([2]; read-out: IC50) was 0.043 µM and the Activity [3] was “Active”. The Activity [4] was “Active”.

In the case of `Cn1cccc1/C=C/c1cnc(/C=C/c2cccn2C)cn1`, the Activity [3] is reported as “Active” and the Activity [4] is reported as “Active”.

With `C(=C\c1cnc(/C=C/c2ccc(N3CCCCC3)cc2)cn1)/c1ccc(N2CCCCC2)cc1` the Activity [3] was “Active” and the Activity [4] was “Active”.

With `C(=C\c1cc(/C=C/c2ccc(N3CCCCC3)cc2)ncn1)/c1ccc(N2CCCCC2)cc1` the IC50 ([1]; read-out: IC50) was 0.017 µM, the IC50 ([2]; read-out: IC50) was 0.156 µM and the Activity [3] was “Active”. For the same molecule, the Activity [4] was “Active”.

In the case of `CN(C)c1ccc(/C=C/C=C/c2cc(/C=C/C=C/c3ccc(N(C)C)cc3)ncn2)cc1`, the IC50 ([1]; read-out: IC50) is reported as 0.002 µM, the IC50 ([2]; read-out: IC50) is reported as 0.003 µM and the Activity [3] is reported as “Active”. The Activity [4] was “Active”.

With `CN(C)c1ccc(/C=C/c2cc(-c3ccccc3F)c(/C=C/c3ccc(N(C)C)cc3)nn2)cc1` the IC50 ([1]; read-out: IC50) was 1.25 µM, the IC50 ([2]; read-out: IC50) was 10.1 µM and the Activity [3] was “Active”. For the same molecule, the Activity [4] was “Active”.

In the case of `CN1CCN(c2ccc(/C=C/c3cc(/C=C/c4ccc(N5CCN(C)CC5)cc4)ncn3)cc2)CC1`, the IC50 ([1]; read-out: IC50) is reported as 7.47 µM, the IC50 ([2]; read-out: IC50) is reported as 2.38 µM and the Activity [3] is reported as “Active”. The Activity [4] was “Active”.

With `Cn1cccc1/C=C/c1cc(-c2ccccc2)c(/C=C/c2cccn2C)nn1` the IC50 [1] was “Not Active”, the IC50 [2] was “Not Active” and the Activity [3] was “Active”. The Activity [4] was “Active”.

With `C(=C\c1cc(/C=C/c2ccc(N3CCCC3)cc2)ncn1)/c1ccc(N2CCCC2)cc1` the Activity (HepG2) was “Non-toxic”, the Activity (Mus musculus) was “inactive” and the IC50 ([1]; read-out: IC50) was 0.002 µM. The IC50 ([2]; read-out: IC50) was 0.052 µM, the Activity [3] was “Active” and the Activity [4] was “Active”.

With `C(=C\c1cnc(/C=C/c2ccc(N3CCCC3)cc2)cn1)/c1ccc(N2CCCC2)cc1` the Activity [3] was “Active” and the Activity [4] was “Active”.

With `CN1CCN(c2ccc(/C=C/c3cnc(/C=C/c4ccc(N5CCN(C)CC5)cc4)cn3)cc2)CC1` the IC50 ([1]; read-out: IC50) was 0.042 µM, the IC50 ([2]; read-out: IC50) was 0.051 µM and the Activity [3] was “Active”. For the same molecule, the Activity [4] was “Active”.

For `CN(C)c1ccc(/C=C/c2cc(-c3ccccc3)c(/C=C/c3ccc(N(C)C)cc3)nn2)cc1`, the IC50 [1] was “Not Active”, the IC50 [2] was “Not Active” and the Activity [3] was “Active”. The Activity [4] was “Active”.

With `CN(C)c1ccc(/C=C/c2cnc(/C=C/c3ccc(N(C)C)cc3)cn2)cc1` the Activity (Mus musculus) was “Active”, the Activity [5] was “Active” and the Activity [6] was “Active”. The Activity [3] was “Active” and the Activity [4] was “Active”.

In the case of `C(=C\c1cc(/C=C/c2ccc(N3CCOCC3)cc2)ncn1)/c1ccc(N2CCOCC2)cc1`, the IC50 [1] is reported as “Not Active”, the IC50 [2] is reported as “Not Active” and the Activity [3] is reported as “Active”. The Activity [4] was “Active”.

With `COc1ccc(/C=C/c2cnc(/C=C/c3ccc(OC)cc3)cn2)cc1` the IC50 ([1]; read-out: IC50) was 0.013 µM, the IC50 ([2]; read-out: IC50) was 0.017 µM and the Activity [3] was “Active”. For the same molecule, the Activity [4] was “Active”.

With `[11CH3]Oc1cc(/C=C/c2ccc(O)cc2)ccc1/C=C/c1ccc(O)cc1` the Ki [7] was 0.0268 µM.

Molecule `COc1cc(/C=C/c2ccc(O)cc2)ccc1/C=C/c1ccc(O)cc1` has a logP [8] of 2.6, a Ratio IC50 [9] of 1.8 and an IC50 ([1]; read-out: IC50) of 0.246 µM. For the same molecule, the IC50 ([2]; read-out: IC50) was 0.14 µM.

With `COc1ccc(-c2cc(/C=C/c3ccc(N(C)C)cc3)nnc2/C=C/c2ccc(N(C)C)cc2)cc1` the IC50 ([1]; read-out: IC50) was 1.59 µM, the IC50 ([2]; read-out: IC50) was 4.57 µM and the Activity [3] was “Active”. For the same molecule, the Activity [4] was “Active”.

In the case of `CN(C)c1ccc(/C=C/c2cc(/C=C/c3ccc(N(C)C)cc3)ncn2)cc1`, the Activity [10] is reported as “Active”, the Activity (HepG2) is reported as “Non-toxic” and the Activity (Mus musculus) is reported as “Active”. It also gave a Ratio IC50 [11] of 13.5, an IC50 ([1]; read-out: IC50) of 0.004 µM and an IC50 ([2]; read-out: IC50) of 0.054 µM. The Activity [3] was “Active” and the Activity [4] was “Active”.

In the case of `C(=C\c1cc(-c2ccccc2)c(/C=C/c2ccc(N3CCOCC3)cc2)nn1)/c1ccc(N2CCOCC2)cc1`, the IC50 ([1]; read-out: IC50) is reported as 4.71 µM, the IC50 ([2]; read-out: IC50) is reported as 7.59 µM and the Activity [3] is reported as “Active”. For the same molecule, the Activity [4] was “Active”.

With `CC(C)c1ccc(/C=C/c2cnc(/C=C/c3ccc(C(C)C)cc3)cn2)cc1` the IC50 [1] was “Not Active”, the IC50 [2] was “Not Active” and the Activity [3] was “Active”. For the same molecule, the Activity [4] was “Active”.
